Entries after “also recorded” stand apart in the source; their conditions may differ. A value given as a limit tells only on which side of the number the result lay.

One series deals with human melanoma C32 cells. Description: MTT assay in C32 cells. It is filed as cell-based. Conditions: 48 h. From the text: (§1) An in vitro cancer cell two-dimensional culture model was used for this study using 3-(4,5-dimethylthiazole-2-yl)-2,5-diphenyltetrazolium bromide (MTT) assay.[19]
(§2) The cell viability of PPPs was investigated using 3-(4,5-dimethylthiazole-2-yl)-2,5-diphenyltetrazolium bromide (MTT) reduction assay in the presence of 10% fetal bovine serum in antibiotic free media. The yellow tetrazolium salt (MTT) is modified by mitochondrial dehydrogenases to its purple formazan derivative (MTT-formazan) with maximum absorbance at 560–570 nm. […] Experiment was performed in 96-well plates (Cellstar, Germany) growing 10 000 cells (MCF-7, MDA-MB231, and MCF-10A) per well for 24 h before treatments. Experiments were performed for various concentrations of PPPs ranging from 10^5 to 10^0 nM and compared with Taxol as positive control ranging from 10^2 to 10^–3 nM, as described in particular experiment. Cells were incubated for 48 h before performing the MTT assay. At the end of the incubation period, cells were treated with MTT (20 μL, 5 mg/mL) per well and further incubated for 4 h. At the end of the incubation, the entire medium was removed from the wells and 200 μL of dimethyl sulfoxide (DMSO) was added to dissolve blue-colored formazan crystals produced by mitochondrial respirations. The percentage cell viability was obtained by calculating absorbance values and calculated using the formula %viability = {[A630(treated cells) – (background)]/[A630(untreated cells) – background]} × 100.
A general note: Tetrazolium assays rely on reduction of a dye to a coloured formazan, in cell work by metabolically active cells.

Another series deals with MDA-MB231 cells. Briefly: MTT assay in MDA-MB231 cells. In kind it is cell-based.
Source text: as §1, §2

Series [1] deals with MCF-7 cells. Briefly: MTT assay in MCF-7 cells. It is filed as cell-based. The settings on record: for viability at 10 µM: read-out: viable cells; for IC50: MCF-7, MTT.
Source text: as §1, §2

A further series deals with MCF-10A cells. Description: MTT assay in noncancerous MCF-10A cells. In kind it is cell-based, human. Conditions: 10 μM, 48 h. The method, then:
Effectivity of anticancer drugs not only depends on cancer inhibition property but minimum effect to noncancerous normal cells. A representative study was performed on MCF-10A cells of noncancerous nature and human breast origin. […] It indicates the selectivity of PPPs toward cancer cells, presumably due to higher variation in tubulin polymerization processes.
as §2

The test system of series [2] is tubulin. Description: In vitro microtubule polymerization assay (fluorescence). In kind it is biochemical. Details: dose or concentration left out as unconfirmed. Conditions: 37 °C, 1.5 h, λex 350 nm, 430 nm. The method, then:
To gather further insight into the molecular mechanism of action of PPPs, an in vitro cytoskeleton assay was carried out to investigate the effect of these agents on microtubule polymerization (Figure 1). In this protocol, 85 μL of 10 mg/mL tubulin stock was incubated with tubulin glycerol buffer for 1.5 h at 37 °C in the presence of various PPPs at a fixed concentration (20 mM). Following this, the degree of tubulin polymerization was evaluated by observing their fluorescence profile with time.
The content of polymerized microtubules was monitored by measuring fluorescence intensity at 430 nm (λex = 350 nm) every 7 s for 1.5 h. Paclitaxel (PTXL), a well-known microtubule stabilizer, was added to the assay as a positive control, whereas the tubulin glycerol buffer acted as a negative control. […] This implies that addition of PPP1–7 into the assay led to a stabilization of microtubule polymerization. […] Further inspection to correlate between the obtained trend in tubulin polymerization and modifications attempted at the N-1 and C-3 positions yielded interesting observations. […]
Unless otherwise mentioned, the reagents and chemicals were purchased from Sigma-Aldrich (St. Louis, MO) and used without any purification. […] High-resolution mass spectra (HRMS) were recorded on a quad time-of-flight electrospray ionization (ESI)-MS instrument.

Series [3] relates to tubulin. Description: SDS-PAGE of PPP-tubulin mixtures, band intensity of polymerized tubulin (FIJI). It is filed as biochemical. Conditions: Coomassie stain, among all PPP–tubulin mixtures. The protocol:
With this promising result, we further focused on confirming the polymerization of microtubules. PPP–tubulin mixtures were collected from the abovementioned assay, and a sodium dodecyl sulfate polyacrylamide gel electrophoresis (SDS-PAGE) was performed to separate both tubulin as well as polymerized tubulin from the mixture. […] Two distinct bands were obtained, one in the region of 40–55 kDa, which is consistent with the molecular weight of α-, β-tubulin,[16] and other in the region of 130 kDa. This is presumably a result of tubulin polymerization. A semiquantitative analysis of the polymerized tubulin bands was performed using FIJI[17] to calculate the band intensities, as shown in Figure 2b. Fold change of band intensities was further calculated with respect to PPP5–tubulin mixture (Figure 2c).  Figure 2 (a) Coomassie-stained gel lanes for tubulin–dye mixtures, showing two migrating populations, polymerized tubulin (∼130 kDa MW), and α-, β-tubulin (∼50 kDa MW). A representative molecular weight standard lane is also shown across the sample lanes for comparison.

Series [4] deals with MCF-7 cells. Briefly: Cell growth density study (bright field images). In kind it is cell-based. The settings on record: MCF-7, 1 μM.
Where [5] appears, read: Homo sapiens, MCF7, MCF-7, 10 μM, 48 h.

Consider `Cc1cc(-c2ccc3ccc4cccc5ccc2c3c45)[nH]n1` [PPP6, 3-Methyl-5-(pyren-1-yl)-1H-pyrazole], for which the IC50 (in general, the concentration needed to halve the response being measured) in the series with human melanoma C32 cells (Homo sapiens) was greater than 100 µM; in the series with MDA-MB231 cells (Homo sapiens, MDA-MB-231, 48 h) it was greater than 100 µM; with MCF-7 cells [1] (Homo sapiens, MCF7, 48 h), 43 ± 5 µM. In the series on MCF-7 cells [1] (setting [5]), the viability at 10 µM came out at 55 ± 5%.
For the molecule `Cc1cc(-c2ccc3ccc4cccc5ccc2c3c45)n(-c2ccccc2)n1` [PPP1, 3-Methyl-1-phenyl-5-(pyren-1-yl)-1H-pyrazole], the IC50 was greater than 100 µM with human melanoma C32 cells (Homo sapiens); greater than 100 µM in the series with MDA-MB231 cells (Homo sapiens, MDA-MB-231, 48 h); 60 ± 10 µM with MCF-7 cells [1] (Homo sapiens, MCF7, 48 h). The viability at 10 µM in the series with MCF-7 cells [1] (setting [5]) worked out at 50 ± 5%. Besides, the “cell death in noncancerous cells” value in the series on MCF-10A cells is given as “did not result in any significant cell death”.
With `CC(=O)O[C@H]1C(=O)[C@@]2(C)[C@H]([C@H](OC(=O)c3ccccc3)[C@]3(O)C[C@H](OC(=O)[C@H](O)[C@@H](NC(=O)c4ccccc4)c4ccccc4)C(C)=C1C3(C)C)[C@]1(OC(C)=O)CO[C@@H]1C[C@@H]2O` [Taxol, Paclitaxel, reference compound], the “effect on microtubule polymerization (fluorescence intensity with time)” value with tubulin [2] (listed as PTXL) is “increase in relative fluorescence intensity; also recorded: stabilizing the tubulin polymerization reaction”. In the series with MCF-7 cells [1] (MCF-7, positive control, Figure 4b), this molecule displayed a cell growth level of 42 ± 10%.
In the case of `Cc1cc(-c2ccc3ccc4cccc5ccc2c3c45)n(-c2ccc(-c3ccccc3)cc2)n1` [PPP2, 1-([1,1′-Biphenyl]-4-yl)-3-methyl-5-(pyren-1-yl)-1H-pyrazole], the 50% inhibitory concentration (IC50) was greater than 100 µM with human melanoma C32 cells (Homo sapiens); 15 ± 5 µM in the series with MDA-MB231 cells (Homo sapiens, MDA-MB-231, 48 h); 34 ± 4 µM in the series on MCF-7 cells [1] (Homo sapiens, MCF7, 48 h). Moreover, in the series with MCF-7 cells [1] (setting [5]), the viability at 10 µM was 45 ± 3%.
As for `O=C(O)c1cc(-c2ccc3ccc4cccc5ccc2c3c45)n(-c2ccccc2)n1` [PPP7, 1-Phenyl-5-(pyren-1-yl)-1H-pyrazole-3-carboxylic Acid], the IC50 with human melanoma C32 cells (Homo sapiens) is 14 ± 2 µM; in the series on MDA-MB231 cells (Homo sapiens, MDA-MB-231, 48 h) it was 10 ± 2 µM; in the series with MCF-7 cells [1] (Homo sapiens, MCF7, 48 h), 8 ± 2 µM. The viability at 10 µM in the series with MCF-7 cells [1] (setting [5]) came to 50 ± 5%. For the same molecule, the “cell death in noncancerous cells” value in the series on MCF-10A cells was “did not result in any significant cell death”.
Regarding “1-(Benzo[b]thiophen-2-yl)-3-methyl-5-(pyren-1-yl)-1H-pyrazole [PPP3]”, the IC50 with human melanoma C32 cells, in the series with MDA-MB231 cells (48 h) and in the series with MCF-7 cells [1] (48 h) was greater than 100 µM in each case. This molecule came in with a viable cells with MCF-7 cells [1] (MCF-7, 10 μM, 48 h) of 52 ± 5%.
As for `c1ccc(-c2ccc(-n3nc(-c4ccccc4)cc3-c3ccc4ccc5cccc6ccc3c4c56)cc2)cc1` [PPP5, 1-([1,1′-Biphenyl]-4-yl)-3-phenyl-5-(pyren-1-yl)-1H-pyrazole], the IC50 with human melanoma C32 cells (Homo sapiens) is greater than 100 µM; in the series on MDA-MB231 cells (Homo sapiens, MDA-MB-231, 48 h), greater than 100 µM; in the series with MCF-7 cells [1] (Homo sapiens, MCF7, 48 h), greater than 100 µM. Further, the “effect on microtubule polymerization (fluorescence intensity with time)” value in the series on tubulin [2] is “inhibits microtubule formation; also recorded: inhibition of microtubule polymerization”. For the same molecule, in the series on MCF-7 cells [1] (setting [5]), the viability at 10 µM was found to be 70 ± 10%. Besides, the “band intensity of polymerized tubulin (∼130 kDa)” value with tubulin [3] is “least”.
Turning to `c1ccc(-c2cc(-c3ccc4ccc5cccc6ccc3c4c56)n(-c3ccccc3)n2)cc1` [PPP4, 1,3-Diphenyl-5-(pyren-1-yl)-1H-pyrazole], the IC50 in the series with human melanoma C32 cells (Homo sapiens) worked out at 5 ± 2 µM; in the series on MDA-MB231 cells (Homo sapiens, MDA-MB-231, 48 h), 0.5 ± 0.2 µM; in the series with MCF-7 cells [1] (Homo sapiens, MCF7, 48 h) it was 1 ± 0.5 µM. Besides, the “loss in cell growth density” value in the series with MCF-7 cells [4] is recorded as “maximum loss”. In the series with MCF-7 cells [1] (setting [5]), the viability at 10 µM came to 30 ± 3%. Moreover, the “cell death in noncancerous cells” value in the series with MCF-10A cells is reported as “did not result in any significant cell death”.

Source of the values: paper PMC6130796, “Copper-Catalyzed Syntheses of Pyrene-Pyrazole Pharmacophores and Structure Activity Studies for Tubulin Polymerization” (ACS Omega, 2018).
